Laboratory results from patent US20060024658A1, “Composition and methods for evaluating an organism's response to alcohol or stimulants” (priority 1998, published 2006).
Like-named read-outs stand apart in the source and are kept apart here.

Experiments:
noradrenergic receptors = conditions: in vivo; cited from earlier work
SHSY-5Y cells = assay: Effects of alcohols on gene expression (array hybridization intensity) in SHSY-5Y cells, Study 1; format: cell-based, human; conditions: for Co-Activ increase in hybridization / MAP4 increase in hybridization / Na/H Anti increase in hybridization / ZNFP increase in hybridization: 50 mM alcohol, early (2 hour) response, FIG. 2B; for DBH hybridization intensity over baseline / DLK hybridization intensity over baseline / GABA-β3 hybridization intensity over baseline / NPTX2 hybridization intensity over baseline / PDGFR hybridization intensity over baseline / PTK hybridization intensity over baseline: FIG. 2A
Source text: Hybridization strength is given a baseline of 1 and increased intensity is expressed in as a multiple of the baseline, i.e., 2-fold, 3-fold, 4-fold etc.
Column 1 lists the presumed functional class of the gene.
Columns are similar to Table 8.

SH-SY5Y cells [1] = assay: Effect of dexamethasone and db-cAMP on expression of DBH, NET, DLK and MCP-1; format: cell-based, human; conditions: 1 mM; data not shown
Source text: Previous studies have shown that neuroblastoma cells derived from the neural crest could differentiate either towards a more neuronal phenotype in the presence of retinoic acid, or a chromaffin-like phenotype in the presence of glucocorticoids or dibutyryl-cyclic AMP (db-cAMP). […] Therefore, we tested the effect of dexamethasone and db-cAMP on the expression of our 4 candidate genes.

[2] = ethanol administration; cited from earlier work
[3] = test system: DBH protein in SH-SY5Y cells
Experimental: (§1) The relative amount of DBH protein between whole cell homogenates of control and ethanol-treated cells was determined by Western blot analysis following standard protocols using a polyclonal antibody (Calbiochem). MCP-1 production was monitored in the culture media of cells treated in the absence or presence of ethanol using the Quantikine MCP-1 immunoassay from R&D System.

[4] = test system: MCP-1 release from SH-SY5Y cells; conditions: ethanol-treated cells; FIG. 4C
Experimental: as §1

[5] = test system: DBH mRNA in adrenal glands and brain; conditions: versus saline
Experimental: Animal studies were conducted on female DBA/2 mice (Simonsen Laboratories, Gilroy, Calif.) weighing 20-30 g at 8 weeks of age. All animals were housed individually under a 12:12 light-dark cycle at 22° C. and given ad libitum access to food and water before and after injection procedures. […] Adrenal glands were dissected out, immediately frozen into liquid nitrogen and stored at −80° C. until needed.
Aliquot of ss cDNA were then used in comparative PCR. […] We performed duplex reaction using GAPDH as an endogenous amplification standard. PCR conditions were optimized so that the amplification of both, GAPDH and DBH cDNAs were in the exponential phase.

[6] = test system: human neuroblastoma SH-SY5Y cells; assay: Oligonucleotide array (Affymetrix GeneChip Hu6800) gene expression profile after ethanol; conditions: 72 h
SH-SY5Y cells [7] = conditions: 150 mM ethanol, 3 days, media from last 24 h, n=3; control 0.957+/−0.49
Experimental: All HPLC apparatus was from ESA, Inc. (Chelmsford, Mass.). Following precipitation with 0.1 M perchloric acid and centrifugation over a 5000 MW cut-off centrifugal filter, culture media (10 μl aliquot) was injected onto an ESA HR-80 column (C-18, 4.6 mm×8 cm, 3 um particle size) using a Model 540 refrigerated autosampler injector and a Model 580 solvent delivery pump. […] Eluents were detected at a flow rate of 1.0 ml/min using a Model 5011 analytical cell with palladium reference electrode, a Model 5020 guard cell, and a Model 5200A Coulochem II electrochemical detector. Electrode settings were +350 mV for the guard cell, −100 mV for the pre-oxidation electrode, and +280 mV for the detection electrode. Samples were analyzed at 5 nA sensitivity and compared with a two-point monoamine standard calibration curve at 1 and 5 pg/μl using the Model 501 analysis software package.

SH-SY5Y cells [8] = test system: SH-SY5Y cells
Source text: RNA blots were probed with ^32P-labeled inserts of human DBH, NET, DLK and MCP-1 cDNAs. Probes were synthesized by RT-PCR using SH-SY5Y total RNA as template. […] Human GAPDH cDNA probe (Clonetech) was used as an internal control for total RNA normalization.

[9] = 50, 100, 150 mM ethanol, FIG. 3B

Clc1cccc(Cl)c1N=C1NCCN1 [clonidine]
ethanol withdrawal syndrome (noradrenergic receptors): strongly reduce ethanol withdrawal syndrome

CO [methanol, reference compound]
Co-Activ increase in hybridization (SHSY-5Y cells): 1.5 fold
MAP4 increase in hybridization (SHSY-5Y cells): > 2 fold
Na/H Anti increase in hybridization (SHSY-5Y cells): 1.5 fold
ZNFP increase in hybridization (SHSY-5Y cells): 1.5 fold

CCCC(=O)Nc1ncnc2c1ncn2[C@@H]1O[C@@H]2COP(=O)(O)O[C@H]2[C@H]1OC(=O)CCC [db-cAMP, dibutyryl-cyclic AMP]
time after treatment at which effects were significant (SH-SY5Y cells [1]): ≤ 24 h

CCCO [propanol, reference compound]
Co-Activ increase in hybridization (SHSY-5Y cells): > 6.5 fold
MAP4 increase in hybridization (SHSY-5Y cells): 4 fold
Na/H Anti increase in hybridization (SHSY-5Y cells): 6.5 fold
ZNFP increase in hybridization (SHSY-5Y cells): > 6 fold

CCO [ethanol]
plasma norepinephrine levels [2]: dose-dependent elevation
DBH protein expression ([3]; 150 mM ethanol for 72 h, FIG. 4B): enhancement in DBH protein expression
duration of increase in DBH protein levels ([3]; continued presence of ethanol, data not shown): sustained up to 7 days treatment
MCP-1 peptide release in the culture media [4]: decrease in peptide release
DBH mRNA levels in the brain ([5]; 6 or 24 h after single dose 4 g/kg i.p., data not shown): No difference in expression
DBH mRNA levels in the adrenal ([5]; 6 h after single dose 4 g/kg i.p., data not shown): No difference in expression
DBH mRNA levels in the adrenal ([5]; 24 h after single dose 4 g/kg i.p., FIG. 5): significant increase
E100, change in expression of ARHGDIB (L20688) ([6]; 100 mM ethanol): −0.7
E100, change in expression of CPE (X51405) ([6]; 100 mM ethanol): 1.2
E100, change in expression of DBH (X13255) ([6]; 100 mM ethanol): 5.4
E100, change in expression of DLK1 (T49117) ([6]; 100 mM ethanol): 2.9
E100, change in expression of DUSP4 (U21108) ([6]; 100 mM ethanol): 0.9
E100, change in expression of E2-28.4 (EST) (R01227) ([6]; 100 mM ethanol): 1
E100, change in expression of EGFR (H02836) ([6]; 100 mM ethanol): 1
E100, change in expression of EST H08637 (NF1) ([6]; 100 mM ethanol): 0.9
E100, change in expression of EST R47985 (Acrosin) ([6]; 100 mM ethanol): −1.3
E100, change in expression of EST R60751 (IEP2) ([6]; 100 mM ethanol): −0.8
E100, change in expression of EST R73461 (TCRbeta) ([6]; 100 mM ethanol): −3.7
E100, change in expression of EST T94087 (JNK2) ([6]; 100 mM ethanol): 1
E100, change in expression of FKHL1 (R60332) ([6]; 100 mM ethanol): −0.9
E100, change in expression of GCH1 (U19523) ([6]; 100 mM ethanol): 1.6
E100, change in expression of GLRX (X76648) ([6]; 100 mM ethanol): 1.4
E100, change in expression of GPI-H (L19783) ([6]; 100 mM ethanol): −0.6
E100, change in expression of GSTM4 (M99422) ([6]; 100 mM ethanol): 0.9
E100, change in expression of HIRH (H14506) ([6]; 100 mM ethanol): −1
E100, change in expression of IL7 (J04156) ([6]; 100 mM ethanol): −0.7
E100, change in expression of KRT18 (T53412) ([6]; 100 mM ethanol): −2.3
E100, change in expression of LUM (U21128) ([6]; 100 mM ethanol): 1.6
E100, change in expression of MCP1 (M26683) ([6]; 100 mM ethanol): −1.9
E100, change in expression of MGP (H52207) ([6]; 100 mM ethanol): −0.7
E100, change in expression of NAIP (U19251) ([6]; 100 mM ethanol): 0.9
E100, change in expression of NEF3 (Y00067) ([6]; 100 mM ethanol): 1.4
E100, change in expression of NFIB2/3 (H91713) ([6]; 100 mM ethanol): 2.1
E100, change in expression of NP (T47964) ([6]; 100 mM ethanol): 0.5
E100, change in expression of NPTX2 (U29195) ([6]; 100 mM ethanol): 0.9
E100, change in expression of NSMAF (R41765) ([6]; 100 mM ethanol): 1.1
E100, change in expression of PGY1 (M29447) ([6]; 100 mM ethanol): 2.3
E100, change in expression of PMSCL2 (R40490) ([6]; 100 mM ethanol): 0.7
E100, change in expression of PRHX (X67235) ([6]; 100 mM ethanol): 1
E100, change in expression of RAC2 (H42477) ([6]; 100 mM ethanol): −0.9
E100, change in expression of RPL14 (R82938) ([6]; 100 mM ethanol): −0.5
E100, change in expression of SLC6A2(NET) (M65105) ([6]; 100 mM ethanol): 2.6
E100, change in expression of SOX9 (Z46629) ([6]; 100 mM ethanol): −1.2
E100, change in expression of SPARC (T54767) ([6]; 100 mM ethanol): −1.3
E100, change in expression of SSH3BP1 (R34245) ([6]; 100 mM ethanol): 0.7
E100, change in expression of TMPO (U09086) ([6]; 100 mM ethanol): 1
E100, change in expression of TP53 (X54156) ([6]; 100 mM ethanol): −1.1
E100, change in expression of ZNF42 (R83364) ([6]; 100 mM ethanol): −1.9
DBH mRNA levels, dose dependence [6, 9]: changed in a dose-dependent manner
DLK, NET and MCP-1 gene expression, dose dependence [6, 9]: showed a dose-response
expression of gene encoding α7 subunit of the neuronal acetylcholine receptor (nAChRα7) ([6]; 100 mM ethanol, FIG. 3A): downregulated
Co-Activ increase in hybridization (SHSY-5Y cells): 4 fold
MAP4 increase in hybridization (SHSY-5Y cells): 3 fold
Na/H Anti increase in hybridization (SHSY-5Y cells): ~6 fold
ZNFP increase in hybridization (SHSY-5Y cells): 7.5 fold
DBH hybridization intensity over baseline (SHSY-5Y cells; 50 mM ethanol): 3 fold
DLK hybridization intensity over baseline (SHSY-5Y cells; 50 mM ethanol, baseline = 1): just over the baseline
GABA-β3 hybridization intensity over baseline (SHSY-5Y cells; 50 mM ethanol, baseline = 1): just over the baseline
NPTX2 hybridization intensity over baseline (SHSY-5Y cells; 50 mM ethanol, baseline = 1): just over the baseline
PDGFR hybridization intensity over baseline (SHSY-5Y cells; 50 mM ethanol, baseline = 1): just over the baseline
PTK hybridization intensity over baseline (SHSY-5Y cells; 50 mM ethanol, baseline = 1): just over the baseline
DBH hybridization intensity over baseline (SHSY-5Y cells; 100 mM ethanol): 5 fold
DLK hybridization intensity over baseline (SHSY-5Y cells; 100 mM ethanol): 3 fold
GABA-β3 hybridization intensity over baseline (SHSY-5Y cells; 100 mM ethanol): around 2 fold
NPTX2 hybridization intensity over baseline (SHSY-5Y cells; 100 mM ethanol): around 2 fold
PDGFR hybridization intensity over baseline (SHSY-5Y cells; 100 mM ethanol): 3 fold
PTK hybridization intensity over baseline (SHSY-5Y cells; 100 mM ethanol): 3 fold
DBH hybridization intensity over baseline (SHSY-5Y cells; 150 mM ethanol): ~9 fold
DLK hybridization intensity over baseline (SHSY-5Y cells; 150 mM ethanol): ~7 fold
GABA-β3 hybridization intensity over baseline (SHSY-5Y cells; 150 mM ethanol): 2 fold
NPTX2 hybridization intensity over baseline (SHSY-5Y cells; 150 mM ethanol): 2 fold
PDGFR hybridization intensity over baseline (SHSY-5Y cells; 150 mM ethanol): 5 fold
PTK hybridization intensity over baseline (SHSY-5Y cells; 150 mM ethanol): 2 fold
NE levels in the media (SH-SY5Y cells [7]): 23.554+/−5.218 ng/mg of protein
DBH, DLK and NET mRNA levels (SH-SY5Y cells [8]; 3 days treatment, FIG. 4A): increase
MCP-1 transcript levels (SH-SY5Y cells [8]; 3 days treatment, FIG. 4A): decrease
time after addition at which changes in expression were detected (SH-SY5Y cells [8]; DBH, DLK, NET, MCP-1, data not shown): ≤ 24 h
